Measured values as given in patent US12168803B2, “Compositions and methods for screening and diagnosis of prostate cancer” (DANA-FARBER CANCER INSTITUTE, INC., priority 2015, dated 2024).

What was measured:
[1] = test system: LAPC4 cells; assay: Cell growth / viability (Trypan Blue exclusion) of LAPC4 cells; format: cell-based, human
Excerpt: (§1) To interrogate the differential sensitivity to docetaxel of prostate cancer cells, two prostate cancer cell lines, LNCaP and LAPC4, were compared.
(§2) LNCaP-Abl cell line was provided by Zoran Culig (Innsbruck Medical University). LNCaP-C42 cell line was obtained from ViroMed Laboratories (Minneapolis). LNCaP-104R2 cell line was provided by Shutsung Liao (University of Chicago), and LAPC-4 cell line was provided by Charles Sawyers (Memorial Sloan Kettering Cancer Center). These cells were maintained with 10% fetal bovine serum (FBS) (LNCaP, LNCaP-C42, LMCaP-AI, VCAP, 22RV1, LAPC4, PC3, and DU145) or 10% charcoal-stripped serum (CSS) (LNCaP-Abl, and LNCaP-104R2) at 37 c in 5% CO2.

[2] = test system: LAPC4 cells; details: LAPC4, upon docetaxel treatment
Excerpt: as §1

[3] = test system: LNCaP cells; assay: Cell growth / viability (Trypan Blue exclusion) of LNCaP cells; format: cell-based, human
Excerpt: as §1, §2

[4] = test system: docetaxel-resistant prostate cancer; details: docetaxel-resistant patients; cited from earlier work
[5] = test system: metastatic castration-resistant prostate cancer (mCRPC); details: first-line; cited from earlier work
[6] = test system: metastatic hormone sensitive prostate cancer (mHSPC); details: docetaxel given at the time of starting ADT for mHSPC; cited from earlier work

CNC(=O)c1ccc(N2C(=S)N(c3ccc(C#N)c(C(F)(F)F)c3)C(=O)C2(C)C)cc1F [enzalutamide]
effect on viability of cells treated with docetaxel in DHT supplemented media ([1]; LAPC4): substantially reduced
effect on docetaxel sensitivity in the presence of DHT ([1]; LAPC4, 10 nM docetaxel, DHT): resensitized the cells to docetaxel

C[C@]12CCC(=O)C[C@@H]1CC[C@@H]1[C@@H]2CC[C@]2(C)[C@@H](O)CC[C@@H]12 [DHT, dihydro-testosterone]
impact of DHT treatment on docetaxel sensitivity ([1]; LAPC4): dose-dependent
effect of DHT on viability in docetaxel ([1]; LAPC4, 0.01 nM to 0.1 mM docetaxel, Trypan Blue exclusion): markedly increased
effect of 10 nM DHT on cell growth in the presence of docetaxel ([1]; LAPC4, 10 nM docetaxel): restoration of cell growth
effect of DHT on PARP cleavage [2]: specifically reduced
effect of DHT on viability against docetaxel ([3]; LNCaP, 0.01 nM to 0.1 mM docetaxel, Trypan Blue exclusion): not significantly affected

O=C1c2c(O)ccc(O)c2C(=O)c2c(NCCNCCO)ccc(NCCNCCO)c21 [mitoxantrone]
median OS [4]: 12.7 months

CO[C@H]1C(=O)[C@]2(C)[C@@H](OC)C[C@H]3OC[C@@]3(OC(C)=O)[C@H]2[C@H](OC(=O)c2ccccc2)[C@]2(O)C[C@H](OC(=O)[C@H](O)[C@@H](NC(=O)OC(C)(C)C)c3ccccc3)C(C)=C1C2(C)C [cabazitaxel]
improvement of median OS over mitoxantrone [4]: 2.4 months
median OS [4]: 15.1 months

CC(=O)O[C@@]12CO[C@@H]1C[C@H](O)[C@@]1(C)C(=O)[C@H](O)C3=C(C)[C@@H](OC(=O)[C@H](O)[C@@H](NC(=O)OC(C)(C)C)c4ccccc4)C[C@@](O)([C@@H](OC(=O)c4ccccc4)[C@H]21)C3(C)C [docetaxel]
IC20 ([1]; Homo sapiens, LAPC4 cells, growth, read-out: IC20 concentration): 5 nM
sensitivity of cells to docetaxel ([1]; LAPC4, 10 nM docetaxel, absence of DHT): sensitive
prolongation of median overall survival (OS) over mitoxantrone [5]: ~2 month
IC20 ([3]; Homo sapiens, LNCaP cells, growth, read-out: IC20 concentration): 0.5 nM
sensitivity of cells to docetaxel ([3]; LNCaP, 10 nM docetaxel, absence of DHT): sensitive
OS [6]: 57 months
improvement of OS [6]: 13 months
